Experimental data published in patent US20080206332A1, “SUSTAINED RELEASE ORAL DOSAGE FORMS OF A PRODRUG OF R-BACLOFEN AND METHODS OF TREATMENT” (priority 2007, published 2008).

Key:
[1] = in vivo; cited from earlier work
[2] = clinical trials (Castell et al.); cited from earlier work
[3] = dosed either orally or directly into the colon of a mammal; cited from earlier work
[4] = 2 mg t.i.d. R-baclofen equivalent to racemic baclofen 10 mg t.i.d.; cited from earlier work
[5] = Pharmacokinetics of R-baclofen in dogs after oral dosage forms of compound (1); design: species or system Beagle dogs; conditions: dog, in vivo, iv, 10 mg-eq/kg R-baclofen administered intravenously
Method: The dogs were fasted overnight before the study and for 4 hours post-dosing. Blood samples (1 mL) were obtained via the femoral vein at intervals over 24 hours after oral dosing. Blood was quenched immediately using acetonitrile with 1% formic acid and then frozen at −20° C. until analyzed.
The concentration of R-baclofen in quenched whole blood was determined using an API 2000 LC/MS/MS instrument equipped with a Shimadzu binary pump and a Leap CTC autosampler. A Phenomenex Hydro-RP 4.6×50 mm column operating at room temperature was used. The mobile phases were (A) water with 0.1% formic acid, and (B) acetonitrile with 0.1% formic acid. The gradient condition was: 5% B for 0.5 min, then to 95% B in 1.8 min; then maintained at 95% B for 1.2 min. The mobile phase was then returned to 5% B for 2 min. A TurbolonSpray source was used on the API 2000. The analysis was done in positive ion mode and an MRM transition of m/z 214/151 was used in the analysis of R-baclofen. Ten (10) μL of the blood sample was injected. The peaks were integrated using Analyst™ Software ([…]) to provide the concentration of R-baclofen in the blood sample.
Pharmacokinetic profiles of sustained release oral dosage forms prepared according to Examples 1-4 at a dose of 10 mg compound (1) following oral administration to dogs is shown in FIG. 5.

For `NCC(CC(=O)O)c1ccc(Cl)cc1` (racemic) [baclofen, (±)-4-Amino-3-(4-chlorophenyl)butanoic acid], the elimination half-life [1] is given as 3 to 4 h.

For `CC(C)C(=O)O[C@@H](OC(=O)NC[C@H](CC(=O)O)c1ccc(Cl)cc1)C(C)C` [Compound (1), (3R)-4-{[(1S)-2-methyl-1-(2-methylpropanoyloxy)propoxy]carbonylamino}-3-(4-chlorophenyl)butanoic acid], the “reflux episodes in clinical trials” value [2] is listed as “reduce reflux episodes” and the “bioavailability as R-baclofen” value [3] is listed as “high bioavailability”.

In the case of `NC[C@H](CC(=O)O)c1ccc(Cl)cc1` [R-baclofen, R-(−)-baclofen], the “potency of orally administered R-baclofen relative to orally administered racemic baclofen” value [4] is given as “about 5 times” and the AUC(0-inf) [5] is given as 1980 ng·h/mL.
